Assay results: publication PMC12155096 (International Journal of Molecular Sciences, 2025)
Like-named read-outs stand apart in the source and are kept apart here.

Columns and labels:
human CYP2C19 [1] = molecular target: T1, human CYP2C19 (Homo sapiens, UniProt P33261)
CYP3A4 = CYP3A4 (Homo sapiens, UniProt P08684); assay: biochemical
human CYP2C9 [2] = molecular target: T2, human CYP2C9 (Homo sapiens, UniProt P11712)
human CYP1A2 = molecular target: T3, human CYP1A2 (Homo sapiens, UniProt P05177)
T3 sequence (P05177 1-516): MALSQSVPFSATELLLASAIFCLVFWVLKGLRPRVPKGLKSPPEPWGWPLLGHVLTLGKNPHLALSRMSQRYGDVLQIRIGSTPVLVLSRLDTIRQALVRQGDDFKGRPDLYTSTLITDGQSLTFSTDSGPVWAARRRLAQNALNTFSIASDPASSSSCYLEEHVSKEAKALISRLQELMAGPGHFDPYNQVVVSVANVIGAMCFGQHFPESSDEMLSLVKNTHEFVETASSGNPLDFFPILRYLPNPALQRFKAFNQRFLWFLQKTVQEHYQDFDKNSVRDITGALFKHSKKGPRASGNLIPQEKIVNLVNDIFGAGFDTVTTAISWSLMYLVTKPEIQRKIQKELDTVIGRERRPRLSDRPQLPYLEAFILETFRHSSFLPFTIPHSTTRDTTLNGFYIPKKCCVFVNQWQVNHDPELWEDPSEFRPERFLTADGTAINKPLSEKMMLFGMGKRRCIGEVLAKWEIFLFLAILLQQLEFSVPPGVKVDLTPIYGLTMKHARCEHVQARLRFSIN

human CYP2D6 = human CYP2D6 (Homo sapiens, UniProt P10635)
human CYP2D6, sequence (P10635 whole entry): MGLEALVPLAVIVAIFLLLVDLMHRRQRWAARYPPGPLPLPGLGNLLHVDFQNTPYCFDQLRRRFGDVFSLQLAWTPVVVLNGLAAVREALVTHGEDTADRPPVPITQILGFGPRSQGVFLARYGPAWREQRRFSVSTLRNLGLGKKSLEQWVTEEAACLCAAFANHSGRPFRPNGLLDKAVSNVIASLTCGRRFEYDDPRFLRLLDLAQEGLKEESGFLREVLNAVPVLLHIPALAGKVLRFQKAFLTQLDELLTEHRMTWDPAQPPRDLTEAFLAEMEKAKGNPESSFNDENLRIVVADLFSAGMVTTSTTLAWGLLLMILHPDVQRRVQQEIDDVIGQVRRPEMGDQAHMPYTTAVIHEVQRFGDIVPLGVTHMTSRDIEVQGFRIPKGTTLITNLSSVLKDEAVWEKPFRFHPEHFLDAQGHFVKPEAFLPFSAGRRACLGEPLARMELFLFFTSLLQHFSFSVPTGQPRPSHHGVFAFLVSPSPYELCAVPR

human CYP2C19 [3] = molecular target: T1, human CYP2C19; assay: biochemical
human CYP2C9 [4] = molecular target: T2, human CYP2C9; assay: biochemical
[5] = CYP3A4 AC50 (half-maximal activity concentration)
[6] = CYP2C19 AC50 (half-maximal activity concentration)
[7] = CYP2C9 AC50 (half-maximal activity concentration)

T1 sequence (P33261 whole entry): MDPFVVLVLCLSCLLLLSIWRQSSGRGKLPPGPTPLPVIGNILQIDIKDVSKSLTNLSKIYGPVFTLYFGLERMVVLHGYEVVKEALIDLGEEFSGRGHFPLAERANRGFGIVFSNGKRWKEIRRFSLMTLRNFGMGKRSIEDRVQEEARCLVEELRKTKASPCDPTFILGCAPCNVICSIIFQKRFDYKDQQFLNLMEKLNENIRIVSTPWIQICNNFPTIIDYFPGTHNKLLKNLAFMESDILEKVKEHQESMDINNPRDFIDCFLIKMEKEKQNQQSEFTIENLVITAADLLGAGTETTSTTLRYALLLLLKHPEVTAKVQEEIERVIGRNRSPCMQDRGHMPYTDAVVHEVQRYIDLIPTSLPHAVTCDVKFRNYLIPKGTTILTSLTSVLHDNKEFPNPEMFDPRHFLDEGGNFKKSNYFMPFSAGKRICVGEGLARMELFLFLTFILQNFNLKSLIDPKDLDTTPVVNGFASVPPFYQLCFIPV
T2 sequence (P11712 whole entry): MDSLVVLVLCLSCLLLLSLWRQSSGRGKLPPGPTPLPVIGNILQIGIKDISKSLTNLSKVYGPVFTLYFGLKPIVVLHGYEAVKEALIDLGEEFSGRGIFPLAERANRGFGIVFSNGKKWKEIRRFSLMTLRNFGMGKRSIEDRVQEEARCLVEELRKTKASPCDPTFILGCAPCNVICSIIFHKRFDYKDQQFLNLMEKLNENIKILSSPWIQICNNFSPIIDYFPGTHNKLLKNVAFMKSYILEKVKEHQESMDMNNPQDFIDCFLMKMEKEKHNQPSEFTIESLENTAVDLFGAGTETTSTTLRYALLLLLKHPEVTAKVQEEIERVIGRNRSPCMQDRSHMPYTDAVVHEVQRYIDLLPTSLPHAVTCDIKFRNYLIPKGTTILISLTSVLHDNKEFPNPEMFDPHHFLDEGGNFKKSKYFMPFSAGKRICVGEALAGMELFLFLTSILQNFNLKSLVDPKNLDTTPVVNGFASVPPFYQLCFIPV
CYP3A4, sequence (P08684 whole entry): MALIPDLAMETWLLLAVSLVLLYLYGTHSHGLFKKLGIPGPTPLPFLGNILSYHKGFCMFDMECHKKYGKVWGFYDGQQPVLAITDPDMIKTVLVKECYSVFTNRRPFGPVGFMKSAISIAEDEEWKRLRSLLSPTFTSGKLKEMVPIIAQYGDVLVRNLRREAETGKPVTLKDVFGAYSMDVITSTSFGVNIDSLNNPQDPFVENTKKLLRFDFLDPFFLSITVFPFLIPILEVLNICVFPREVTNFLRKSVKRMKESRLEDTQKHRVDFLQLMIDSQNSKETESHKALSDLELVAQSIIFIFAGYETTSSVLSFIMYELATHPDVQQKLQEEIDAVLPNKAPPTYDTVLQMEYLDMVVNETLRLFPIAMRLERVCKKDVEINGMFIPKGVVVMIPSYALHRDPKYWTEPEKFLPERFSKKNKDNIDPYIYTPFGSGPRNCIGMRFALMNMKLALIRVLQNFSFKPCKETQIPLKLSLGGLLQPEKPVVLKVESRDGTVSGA

| SMILES | CYP2C19 AC50 (half-maximal activity concentration) (human CYP2C19 [1]) | AC50 (CYP3A4; [5]) | CYP2C9 AC50 (half-maximal activity concentration) (human CYP2C9 [2]) | CYP1A2 AC50 (half-maximal activity concentration) (human CYP1A2) | CYP2D6 AC50 (half-maximal activity concentration) (human CYP2D6) | AC50 (CYP3A4) | AC50 (human CYP2C19 [3]; [6]) | AC50 (human CYP2C9 [4]; [7]) | AC50 (human CYP2C19 [3]) | CYP1A2 AC50 (half-maximal activity concentration) (human CYP1A2; mean ± standard deviation from three experiments, words = activity call) | AC50 (human CYP2C9 [4]) |
| --- | --- | --- | --- | --- | --- | --- | --- | --- | --- | --- | --- |
| C[C@@H]1CC[C@@]2(OC1)O[C@H]1C[C@H]3[C@@H]4CC[C@H]5C[C@@H](O)CC[C@]5(C)[C@H]4CC(=O)[C@]3(C)[C@H]1[C@@H]2C [Hecogenin] | Inactive | 0.98 µM | Inactive | Inactive | Inactive | – | – | – | – | – | – |
| O=C(O)c1cccc(Oc2ccccc2)c1 [3-Phenoxybenzoic acid] | Inactive | – | Inactive | Inactive | Inactive | 35.6 µM | – | – | – | – | – |
| C[C@]12CC[C@@H]3c4ccc(OC(=O)N(CCCl)CCCl)cc4CC[C@H]3[C@@H]1CC[C@@H]2O [Estramustine] | Inactive | 16.9 µM | Inactive | Inactive | Inactive | – | – | – | – | – | – |
| N#Cc1c(Cl)cccc1Cl [Dichlobenil] | Inactive | 17.8 µM | Inconclusive inhibitor | Inconclusive inhibitor | Inactive | – | – | – | – | – | – |
| O=C(NC(=O)c1c(F)cccc1F)Nc1cc(Cl)c(Oc2ncc(C(F)(F)F)cc2Cl)c(Cl)c1 [Chlorfluazuron] | Inconclusive inhibitor | 9.2 µM | Inconclusive inhibitor | Inactive | Inactive | – | – | – | – | – | – |
| C[C@]12CCC(=O)C=C1CC[C@@H]1[C@@H]2CC[C@]2(C)C(=O)CC[C@@H]12 [4-Androstene-3,17-dione] | – | 8.36 µM | – | Inactive | Inconclusive inhibitor | – | 33.3 µM | 71.9 µM | – | – | – |
| CCSC(=O)N(CC)C1CCCCC1 [Cycloate] | Inconclusive inhibitor | 31.7 µM | Inconclusive inhibitor | Inactive | Inactive | – | – | – | – | – | – |
| CC1(C)[C@H](C(=O)O[C@H](C#N)c2cccc(Oc3ccccc3)c2)[C@@H]1C=C(Br)Br [Deltamethrin] | – | 9.13 µM | – | Inconclusive inhibitor | Inconclusive inhibitor | – | 8.8 µM | 3.68 µM | – | – | – |
| COc1cc(Nc2c(C#N)cnc3cc(OCCCN4CCN(C)CC4)c(OC)cc23)c(Cl)cc1Cl [Bosutinib] | Inactive | 3.48 µM | Inactive | Inactive | Inconclusive inhibitor | – | – | – | – | – | – |
| C=C1C[C@H]2[C@@H]3C=C(C)C4=CC(=O)CC[C@]4(C)[C@H]3CC[C@]2(C)[C@@]1(OC(C)=O)C(C)=O [Melengestrol acetate] | – | 4.92 µM | – | Inactive | Inactive | – | 20.3 µM | 16.8 µM | – | – | – |
| CC(=O)[C@H]1CC[C@H]2[C@@H]3C=CC4=CC(=O)CC[C@@]4(C)[C@@H]3CC[C@]12C [Dydrogesterone] | – | 4.36 µM | – | Inactive | Inconclusive inhibitor | – | 5.49 µM | 32.4 µM | – | – | – |
| O=P(c1ccccc1)(c1ccccc1)c1ccccc1 [Triphenylphosphine oxide] | – | – | – | – | Inactive | 37 ± 2.51 µM | – | – | 7.22 ± 1.65 µM | Inconclusive inhibitor | 6.87 ± 0.95 µM |
| ClC(Cl)=C(c1ccc(Cl)cc1)c1ccccc1Cl [o,p'-DDE] | – | 22.9 µM | – | Inactive | Inactive | – | 6.84 µM | 21 µM | – | – | – |
| Cc1ccc(C(=O)O)cc1[N+](=O)[O-] [4-Methyl-3-nitrobenzoic acid] | Inactive | 35.3 µM | Inactive | Inconclusive inhibitor | Inactive | – | – | – | – | – | – |
| CC(=O)O[C@]1(C(C)=O)CC[C@H]2[C@@H]3C=C(Cl)C4=CC(=O)CC[C@]4(C)[C@H]3CC[C@@]21C [Chlormadinone acetate] | – | 2.05 µM | – | Inactive | Inactive | – | 5.67 µM | 14.9 µM | – | – | – |
| O=C(O)c1cccc(C(=O)O)c1 [1,3-Benzenedicarboxylic acid] | Inactive | 9.6 µM | Inconclusive activator | Inactive | Inactive | – | – | – | – | – | – |
| COC(=O)C(C)N(C(=O)c1ccco1)c1c(C)cccc1C (centres unmarked) [Furalaxyl] | – | 14.7 µM | – | Inconclusive inhibitor | Inactive | – | 13.4 µM | 29.5 µM | – | – | – |
| CC(=O)OC(c1ccccc1)C(Cl)(Cl)Cl (centres unmarked) [2,2,2-Trichloro-1-phenylethyl acetate] | – | – | – | Inactive | Inactive | 23.9 µM | – | – | 35.6 µM | – | 71.3 µM |
| CC(=O)[C@H]1[C@H](C#N)C[C@H]2[C@@H]3CC=C4C[C@@H](O)CC[C@]4(C)[C@H]3CC[C@@]21C [Pregnenolone carbonitrile] | Inactive | 2.22 µM | Inconclusive inhibitor | Inactive | Inactive | – | – | – | – | – | – |
| NS(=O)(=O)c1ccc(NCc2ccccc2)cc1 [Benzylsulfamide] | – | – | – | Inactive | Inactive | 7.8 ± 0.9 µM | – | – | 3.82 ± 1.44 µM | – | 18.6 ± 5.47 µM |
| Clc1cc(Cl)c(-c2c(Cl)c(Cl)cc(Cl)c2Cl)cc1Cl | Inconclusive activator | 24.9 µM | Inactive | Inactive | Inactive | – | – | – | – | – | – |
| O=C(O)CCCc1c[nH]c2ccccc12 [Indole-3-butyric acid] | Inconclusive inhibitor | 13.4 µM | Inactive | Inactive | Inactive | – | – | – | – | – | – |
| O=C(CCOCCOCCOCCOCCC(=O)Nc1c(I)cc(I)c(C(=O)O)c1I)Nc1c(I)cc(I)c(C(=O)O)c1I [Iodoxamic Acid] | Inactive | – | Inactive | Inactive | Inactive | 5.65 ± 2.66 µM | – | – | – | – | – |
| CC(=O)O[C@]1(C(C)=O)CC[C@H]2[C@@H]3C=C(C)C4=CC(=O)CC[C@]4(C)[C@H]3CC[C@@]21C [Megestrol acetate] | – | 2.16 µM | – | Inactive | Inactive | – | 7.2 µM | 8.11 µM | – | – | – |
| C#C[C@]1(OC(C)=O)CC[C@H]2[C@@H]3CCC4=C[C@@H](OC(C)=O)CC[C@@H]4[C@H]3CC[C@@]21C [Ethynodiol diacetate] | – | 3.91 µM | – | Inactive | Inactive | – | 23.7 µM | 13.3 µM | – | – | – |
| O=C(CCCN1CCC(O)(c2ccc(Br)cc2)CC1)c1ccc(F)cc1 [Bromperidol] | Inactive | 4.92 µM | Inactive | Inactive | Inconclusive inhibitor | – | – | – | – | – | – |
| CCCCC(C=O)CC (centres unmarked) [2-Ethylhexanal] | Inactive | – | Inactive | Inactive | Inactive | 45.1 µM | – | – | – | – | – |
| CC(C)N(C(=O)SCC(Cl)=C(Cl)Cl)C(C)C [Tri-allate] | – | 2.47 µM | – | Inconclusive inhibitor | Inactive | – | 10.3 µM | 33 µM | – | – | – |
